Patent US20250197359A1, “CANNABINOID RECEPTOR MODULATING COMPOUNDS” (The U.S.A., as Represented by the Secretary, Department of …, priority 2022, published 2025)
Like-named read-outs stand apart in the source and are kept apart here.

Columns and labels:
[1] = Metabolic stability in human liver microsomes; format: in vitro ADME; conditions: for microsomal CLint / half-life: human, liver microsomes; for half-life: read-out: t1/2, min
[2] = Metabolic stability in mouse liver microsomes; format: in vitro ADME; conditions: for microsomal CLint / half-life: mouse, liver microsomes; for half-life: read-out: t1/2, min
Caco-2 = Caco-2 permeability (A-B and B-A); format: in vitro ADME
Brain/CB1 = target: T1, Brain/CB1 (Mus musculus, UniProt P47746); experiment: Functional GTPγS binding, Brain/CB1; format: biochemical
T1 construct: from tissue; host or cells: mouse brain membranes

CB1 = CB1 (UniProt P21554); experiment: CB1 radioligand binding assay; set-up: species or system human; conditions: read-out: Ki (CB1)
Summary of the method: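 Radioligand binding to human CB1 stably expressed in CHO cells and to mouse brain membrane CB1 gave binding constants. For selected compounds, antagonism of CP55940-induced CB1 activation was measured in MPXNomad-CB1 HEK293 cells via cAMPNomad (cAMP) and ArresNomad (β-arrestin) fluorescent biosensors.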

[3] = Caco-2 permeability (A-B and B-A); format: in vitro ADME; conditions: human; for efflux ratio: Caco-2, quotient of Papp(BA) to Papp(AB)
Cannabinoid receptor 1 [4] = target: T2, Cannabinoid receptor 1 (Homo sapiens, UniProt P21554); experiment: β-Arrestin mobilization, green ArresNomad biosensor, MPXNomad-CB1 HEK293 cell line, antagonism of CP55940; format: cell-based; conditions: for reduction in the fluorescence intensity, arrestin assay: CP55940 3 μM
T2 construct: expressed in transfected cells; host or cells: MPXNomad-CB1 HEK293 cell line
Procedure: (§1) A number of these amino carboxamido adducts with a variety of side chains have been synthesized. This led to interesting CB1R binding affinities of the synthesized molecules. Several of these racemic (glycine, valine) or diastereomeric molecules have binding affinities in single digit nanomolar range (2 nM to 10 nM) obtained from radioligand binding assay. Furthermore, we investigated the antagonist effect of a few compounds to analyze their capability to modulate CBIR induced by CP55940 in the MPXNomad-CB1 HEK293 cell line. This cell line has been validated measuring cAMP signaling and ß-Arrestin mobilization analyzing the fluorescence intensity of the red cAMPNomad and the green ArresNomad biosensors.
(§2) The MPXNomad-CB1 cell line was used to test substances or examine their ability to interact with Cannabinoid receptor 1 where an agonist that binds to CB1 activates a G protein, which in turn causes CAMP to be released and a cellular response that is then internalized by ß-Arrestin. The assay determined the efficacy to block the activation of the CB1 receptor brought on by CP55940 in the MPXNomad-CB1 HEK293 cell line. AM251 1 μM and 3 µM was utilized as the positive control, CP55940 3 μM was used as the negative control, and vehicle (DMSO) served as the zero control. Treatment with CP55940 3 μM produced an increment in the fluorescence intensity of the red cAMPNomad and the green ArresNomad biosensors. […] Instead, the reduction was a 50%, 34% and 22% at 1 μM, 100 nM and 10 nM, respectively in the arrestin assay.

Cannabinoid receptor 1 [5] = target: T2, Cannabinoid receptor 1; experiment: cAMP signaling, red cAMPNomad biosensor, MPXNomad-CB1 HEK293 cell line, antagonism of CP55940; format: cell-based; conditions: for reduction in the fluorescence intensity, cAMP assay: CP55940 3 μM
Procedure: as §1, §2

iNOS = iNOS (Mus musculus, UniProt P29477); experiment: Inducible NOS biochemical assay
Source text: Biochemical assay results are presented as the percent inhibition of specific binding or activity (iNOS, CAMP, beta arrestin).

[6] = Caco-2, mean, read-out: Papp (AB), 10^−6 cm/s, Mean
[7] = Caco-2, mean, read-out: Papp (BA), 10^−6 cm/s, Mean
[8] = Caco-2, replicate 1, read-out: Papp (AB), 10^−6 cm/s, 1
[9] = Caco-2, replicate 1, read-out: Papp (BA), 10^−6 cm/s, 1
[10] = Caco-2, replicate 2, read-out: Papp (AB), 10^−6 cm/s, 2
[11] = Caco-2, replicate 2, read-out: Papp (BA), 10^−6 cm/s, 2
[12] = vs CP55940, MPXNomad-CB1 HEK293

T2 sequence (P21554 whole entry): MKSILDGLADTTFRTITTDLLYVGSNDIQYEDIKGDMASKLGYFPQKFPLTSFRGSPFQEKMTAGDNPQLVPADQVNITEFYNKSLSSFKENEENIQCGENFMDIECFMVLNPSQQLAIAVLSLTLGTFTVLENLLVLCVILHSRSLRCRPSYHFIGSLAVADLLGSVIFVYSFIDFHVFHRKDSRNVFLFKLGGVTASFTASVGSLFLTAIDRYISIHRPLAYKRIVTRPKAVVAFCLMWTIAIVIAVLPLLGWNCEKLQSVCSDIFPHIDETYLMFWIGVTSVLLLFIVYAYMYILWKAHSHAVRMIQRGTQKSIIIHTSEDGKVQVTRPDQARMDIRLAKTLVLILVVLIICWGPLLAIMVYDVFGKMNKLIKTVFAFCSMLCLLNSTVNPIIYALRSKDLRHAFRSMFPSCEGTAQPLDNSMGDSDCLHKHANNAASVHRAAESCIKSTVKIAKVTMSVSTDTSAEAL
T1 sequence (P47746 whole entry): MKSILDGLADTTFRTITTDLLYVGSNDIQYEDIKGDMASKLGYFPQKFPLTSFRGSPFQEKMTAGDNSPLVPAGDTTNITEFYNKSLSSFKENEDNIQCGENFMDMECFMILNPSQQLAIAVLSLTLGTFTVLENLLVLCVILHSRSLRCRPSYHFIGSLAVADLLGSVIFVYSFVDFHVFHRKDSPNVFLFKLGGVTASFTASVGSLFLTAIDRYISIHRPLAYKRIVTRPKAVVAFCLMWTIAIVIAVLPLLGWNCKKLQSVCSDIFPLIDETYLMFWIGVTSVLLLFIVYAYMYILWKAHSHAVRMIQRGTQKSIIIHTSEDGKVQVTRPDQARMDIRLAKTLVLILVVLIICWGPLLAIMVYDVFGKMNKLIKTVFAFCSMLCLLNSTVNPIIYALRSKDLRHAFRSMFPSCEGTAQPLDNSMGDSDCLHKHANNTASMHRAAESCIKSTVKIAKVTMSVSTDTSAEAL

Row | microsomal CLint [1] [µL/min/mg] | half-life [1] [h] | Clint [2] [µL/min/mg] | t1/2, min [2] [h] | IC50 (Brain/CB1) [nM] | Ki (CB1) [nM] | t1/2, min [1] [h] | Papp A→B [3, 6] [×10⁻⁶ cm/s] | Papp B→A [3, 7] [×10⁻⁶ cm/s] | Papp A→B [3, 8] [×10⁻⁶ cm/s] | Papp B→A [3, 9] [×10⁻⁶ cm/s] | Papp A→B [3, 10] [×10⁻⁶ cm/s] | Papp B→A [3, 11] [×10⁻⁶ cm/s] | efflux ratio [3] | microsomal CLint [2] [µL/min/mg] | half-life [2] [h] | iNOS inhibition % Response (iNOS) [%] | Structure (SMILES) | other results
1 | 23 | 1.22 | 236 | 0.118 | 389 | 13.2 |  |  |  |  |  |  |  |  |  |  |  | CC(C)C(N/C(=N/S(=O)(=O)c1ccc(C(F)(F)F)cc1)N1CCC(c2ccccc2)C(c2ccc(Cl)cc2)=N1)C(N)=O (single isomer, unassigned) [Compound 29a, (Z)-2-(3-(4-chlorophenyl)-4-phenyl-N′-((4-(trifluoromethyl)phenyl)sulfonyl)-1,4,5,6-tetrahydropyridazine-1-carboximidamido)-3-methylbutanamide] | Papp (AB), 10^−6 cm/s, Mean (Caco-2; mean): 1.4 10^−6 cm/s; Papp (BA), 10^−6 cm/s, Mean (Caco-2; mean): 0.5 10^−6 cm/s; efflux ratio (Caco-2; quotient of Papp(BA) to Papp(AB)): 0.4; Papp (AB), 10^−6 cm/s, 1 (Caco-2; replicate 1): 1.4 10^−6 cm/s; Papp (BA), 10^−6 cm/s, 1 (Caco-2; replicate 1): 0.5 10^−6 cm/s; Papp (AB), 10^−6 cm/s, 2 (Caco-2; replicate 2): 1.4 10^−6 cm/s; Papp (BA), 10^−6 cm/s, 2 (Caco-2; replicate 2): 0.5 10^−6 cm/s
2 |  |  | 883 | 0.0317 | 10 | 2.7 | 1.91 | 0.9 | 0.3 | 0.9 | 0.3 | 1 | 0.4 | 0.4 |  |  |  | CC(C)C(N/C(=N/S(=O)(=O)c1ccc(C(F)(F)F)cc1)N1CCC(c2ccccc2)C(c2ccc(Cl)cc2)=N1)C(N)=O (single isomer, unassigned) [Compound 29b, (Z)-2-(3-(4-chlorophenyl)-4-phenyl-N′-((4-(trifluoromethyl)phenyl)sulfonyl)-1,4,5,6-tetrahydropyridazine-1-carboximidamido)-3-methylbutanamide] | Clint [1]: 15 µL/min/mg
3 |  |  |  |  |  |  |  |  |  |  |  |  |  |  |  |  |  | CC(C)C(N/C(=N/S(=O)(=O)c1ccc(C(F)(F)F)cc1)N1CCC(c2ccccc2)C(c2ccc(Cl)cc2)=N1)C(N)=O (stereo not shown) [2-(3-(4-chlorophenyl)-4-phenyl-N′-((4-(trifluoromethyl)phenyl)sulfonyl)-1,4,5,6-tetrahydropyridazine-1-carboximidamido)-3-methylbutanamide] | IC50 (Cannabinoid receptor 1 [4]; [12]): 0.227 nM; IC50 (Cannabinoid receptor 1 [5]; [12]): 0.804 nM
4 | 2 | 12.7 |  |  | 93 | 15 |  | 2.5 | 1.9 | 2.4 | 1.9 | 2.5 | 1.8 | 0.8 | 34 | 0.813 | 64 | C/C(N)=N\C(=N\S(=O)(=O)c1ccc(C(F)(F)F)cc1)N1CCC(c2ccccc2)C(c2ccc(Cl)cc2)=N1 (stereo not shown) [Compound 10b, (Z)—N—((E)-1-aminoethylidene)-3-(4-chlorophenyl)-4-phenyl-N′-((4-(trifluoromethyl)phenyl)sulfonyl)-5,6-dihydropyridazine-1 (4H)-carboximidamide] | reduction in the fluorescence intensity, arrestin assay (Cannabinoid receptor 1 [4]; 10 nM): 22%; reduction in the fluorescence intensity, arrestin assay (Cannabinoid receptor 1 [4]; 100 nM): 34%; reduction in the fluorescence intensity, arrestin assay (Cannabinoid receptor 1 [4]; 1 μM): 50%; reduction in the fluorescence intensity, cAMP assay (Cannabinoid receptor 1 [5]; 10 nM): ~19%; reduction in the fluorescence intensity, cAMP assay (Cannabinoid receptor 1 [5]; 100 nM): ~29%; reduction in the fluorescence intensity, cAMP assay (Cannabinoid receptor 1 [5]; 1 μM): ~47%
5 | 26 | 1.07 |  | 1.23 | 18 | 10 | 1.07 | 2.2 | 0.5 | 1.9 | 0.5 | 2.4 | 0.5 | 0.2 | 23 | 1.13 | 66 | CC(C)(C)/C(N)=N/C(=N/S(=O)(=O)c1ccc(C(F)(F)F)cc1)N1CCC(c2ccccc2)C(c2ccc(Cl)cc2)=N1 (stereo not shown) [Compound 10o, (Z)—N—((Z)-1-amino-2,2-dimethylpropylidene)-3-(4-chlorophenyl)-4-phenyl-N′-((4-(trifluoromethyl)phenyl)sulfonyl)-5,6-dihydropyridazine-1 (4H)-carboximidamide] | 
6 | 6 | 4.8 |  | 1.13 | 13 | 9.6 |  | 1.4 | 0.6 | 1.5 | 0.6 | 1.3 | 0.5 | 0.4 | 25 | 1.3 | 36 | N/C(=N\C(=N\S(=O)(=O)c1ccc(C(F)(F)F)cc1)N1CCC(c2ccccc2)C(c2ccc(Cl)cc2)=N1)c1ccc(F)cc1F (stereo not shown) [Compound 10p, (Z)—N—((Z)-amino (2,4-difluorophenyl)methylene)-3-(4-chlorophenyl)-4-phenyl-N′-((4-(trifluoromethyl)phenyl)sulfonyl)-5,6-dihydropyridazine-1 (4H)-carboximidamide] | 
